# Data reported in PMC10458858, “Phytochemical Investigation of Lepionurus sylvestris Blume and Their Anti-Diabetes Effects via Anti-Alpha Glucosidase and Insulin Secretagogue Activities Plus Molecular Docking” (Pharmaceuticals, 2023).
# “And” between values parts separate entries of the source, which are not always exact repeats. Identical values can stand only once. Like-named read-outs stand apart in the source and are kept apart here.
# Key:
# [1] = biological target: alpha glucosidase enzyme (Saccharomyces cerevisiae, UniProt P53341); assay: Anti-alpha glucosidase activity and mechanism of action (Michaelis–Menten, Lineweaver–Burk plots); assay type: biochemical; settings: for inhibition at 400 µg/mL: read-out: Alpha Glucosidase Inhibition at 400 μg/mL
# Sequence of alpha glucosidase enzyme (P53341 whole entry): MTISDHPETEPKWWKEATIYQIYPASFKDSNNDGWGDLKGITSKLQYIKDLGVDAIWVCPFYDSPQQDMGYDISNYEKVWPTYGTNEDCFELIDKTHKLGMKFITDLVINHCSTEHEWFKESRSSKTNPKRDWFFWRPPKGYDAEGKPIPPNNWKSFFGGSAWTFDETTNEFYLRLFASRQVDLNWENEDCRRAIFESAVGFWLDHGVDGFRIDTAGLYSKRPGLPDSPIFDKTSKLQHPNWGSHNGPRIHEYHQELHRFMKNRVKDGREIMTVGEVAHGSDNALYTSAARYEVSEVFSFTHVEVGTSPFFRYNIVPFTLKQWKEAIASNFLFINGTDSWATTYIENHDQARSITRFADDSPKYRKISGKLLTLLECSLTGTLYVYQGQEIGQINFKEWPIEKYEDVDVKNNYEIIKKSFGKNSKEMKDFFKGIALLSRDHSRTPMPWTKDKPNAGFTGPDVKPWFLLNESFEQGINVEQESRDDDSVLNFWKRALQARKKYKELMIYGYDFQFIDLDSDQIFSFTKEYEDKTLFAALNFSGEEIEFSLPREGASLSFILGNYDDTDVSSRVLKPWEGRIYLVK
# Description: The anti-alpha glucosidase activity was determined by following Phoopha et al.’s method. […] The reaction was prepared using a phosphate buffer (pH 7.0), sample (was dissolved in DMSO), […] as substrate, and alpha glucosidase enzyme solution. The test was evaluated by measuring the velocity of the reaction per minute.
# [2] = in vitro; settings: human
# Description: (§1) The toxicity in human cancer cells was tested on a human breast carcinoma cell line (MCF-7), human cervix adenocarcinoma cell line (HeLa), and human lung carcinoma cell line (A549), which were compared to a human gingival fibroblast cell line (HGF) as the normal cells. These cells were cultured in DMEM liquid medium, supporting supplementary nutrients for cell culture. […] A sulforhodamine B assay was used to evaluate the cytotoxic effects of the samples, following a previous report [19]. In brief, the cancer cells were seeded into 96-well plates at 5 × 10^3 cells and incubated for 24 h. Later, we added the test samples at the final concentration of 25 μg/mL and left the experiment in the incubator for 72 h. After that, the cancer cells were fixed with cold 10% trichloro acetic acid for an hour and then we washed the acid with water. The dried plate was dyed with 0.4% SRB in 1% acetic acid for 30 min, and we washed the color with 1% acetic acid 4 times. The SRB color was dissolved in the cancer cells by adding 10 mM tris-base and measuring with a microplate reader at 492 nm.
# [3] = in vitro; assay type: cell-based, human; settings: human; 25 µg/mL, 72 h, SRB; read-out: Cytotoxic Effect at 25 µg/mL (% Inhibition) ± SD, A549
# Description: as §1
# [4] = in vitro; assay type: cell-based, human; settings: human; 25 µg/mL, 72 h, SRB; read-out: Cytotoxic Effect at 25 µg/mL (% Inhibition) ± SD, HeLa
# Description: as §1
# [5] = in vitro; assay type: cell-based, human; settings: human; 25 µg/mL, 72 h, SRB; read-out: Cytotoxic Effect at 25 µg/mL (% Inhibition) ± SD, MCF-7
# Description: as §1
# [6] = system: insulin-secreting rat insulinoma (INS-1E) cells; assay: Insulin secretagogue activity (ELISA); assay type: cell-based; settings: 100 μg/mL, 24 h
# Description: The experiment was slightly modified from previous reports. In brief, the insulin secretion was determined by testing insulin-secreting rat insulinoma (INS-1E) cells, supported by Prof. Dr. Michael Wink, Institute of Pharmacy and Molecular Biotechnology (IPMB), University of Heidelberg, Germany. The cells were cultured in RPMI-1640 liquid medium and supplementary nutrients for cell culture under the condition of a 37 °C humidified incubator containing 5% CO2. The cells were seeded into 24-well plates at 2 × 10^5 cells. Later, the cells were treated with glucose-free culture media to stop energy consumption in the cell metabolism. Afterward, the minimum concentration of glucose in RPMI-1640 was added to the samples for 24 h. Finally, the insulin secretion was measured for insulin releasing by ELISA technique.
# [7] = system: A549 (human lung adenocarcinoma); assay: in vitro; assay type: cell-based
# Description: as §1
# [8] = system: Hela (human cervix adenocarcinoma); assay: in vitro; assay type: cell-based
# Description: as §1
# [9] = system: MCF-7 (human breast adenocarcinoma); assay: in vitro; assay type: cell-based
# Description: as §1
# [10] = system: HGF (human gingival fibroblast)
# Description: as §1
# [11] = 400 μg/mL, isolated compounds panel
# [12] = control 2.5 mM glucose in RPMI-1640
compound,measurement,setting,value
"C[C@H]1O[C@H](O[C@H]2[C@H](O)[C@@H](O)[C@@H](O[C@H]3[C@H](O)[C@@H](O)C(O)O[C@@H]3CO)O[C@@H]2CO)[C@H](O)[C@@H](O)[C@@H]1N[C@H]1C=C(CO)[C@@H](O)[C@H](O)[C@H]1O (stereo partly drawn) [Acarbose, reference compound]",Alpha Glucosidase Inhibition at 400 μg/mL,[1]; [11],62.14 ± 0.37
same,Alpha Glucosidase Inhibition at 2 mg/mL,"[1]; 2 mg/mL, extracts panel",88.18 ± 0.53%
same,mechanism of enzyme inhibition,[1]; Michaelis–Menten and Lineweaver–Burk kinetic plots,competitive
"CC[C@@]1(O)C(=O)OCc2c1cc1n(c2=O)Cc2cc3ccccc3nc2-1 [Camptothecin, reference compound]","inhibition at 72 h, 25 µg/mL",[2],7.35 ± 1.34%
same,"inhibition at 72 h, 25 µg/mL",[3],87.7 ± 1.78%
same,"inhibition at 72 h, 25 µg/mL",[4],85.2 ± 1.23%
same,"inhibition at 72 h, 25 µg/mL",[5],92.95 ± 0.33%
OCC(O)COCC(O)CO (stereo not drawn) [Diglycerol],inhibition at 400 µg/mL,[1]; [11],6.23 ± 1.84%
same,total insulin secretion (insulin concentration),[6]; [12],102.2139 µg/L
same,total insulin secretion (insulin concentration),"[6]; control 2.5 mM glucose in RPMI-1640, listed as diglycerol",102.21 µg/L
CC(C)[C@@H](C)/C=C/[C@@H](C)[C@H]1CC[C@H]2C3=CC=C4C[C@@H](O)CC[C@]4(C)[C@H]3CC[C@]12C [Ergosterol],inhibition at 400 µg/mL,[1],18.6 ± 1.42%
same,total insulin secretion (insulin concentration),[6]; [12],102.4525 µg/L
same,total insulin secretion (insulin concentration),"[6]; control 2.5 mM glucose in RPMI-1640, listed as ergosterol",102.45 µg/L
"COc1ccc(Cl)cc1C(=O)NCCc1ccc(S(=O)(=O)NC(=O)NC2CCCCC2)cc1 [Glibenclamide, reference compound]",total insulin secretion (insulin concentration),[6]; [12],104.57 µg/L and 104.5722 µg/L
Cc1c(O)c(C(=O)CCc2ccccc2)c2oc(=O)cc(-c3ccccc3)c2c1O [Interruptin A],inhibition at 400 µg/mL,[1]; [11],30.3 ± 1.17%
same,total insulin secretion (insulin concentration),[6]; [12],102.52 µg/L and 102.5228 µg/L
Cc1c(O)c(C(=O)C(O)Cc2ccccc2)c2oc(=O)cc(-c3ccccc3)c2c1O (stereo not drawn) [Interruptin C],inhibition at 400 µg/mL,[1]; [11],58.2 ± 0.83%
same,total insulin secretion (insulin concentration),[6]; [12],102.0534 µg/L
same,total insulin secretion (insulin concentration),"[6]; control 2.5 mM glucose in RPMI-1640, listed as interruptin C",102.05 µg/L
"C=C1CC23COC(=O)C2=CCC[C@@H]3[C@@H]2C[C@H](c3ccoc3)OC(=O)[C@H]12 (stereo partly drawn) [The new diterpene (Lepionurodiolide), 15-16-epoxy-neo-cleoda-3,7(20),13(16),14-tetraene-12,17:18,19-diolide]",inhibition at 400 µg/mL,[1]; [11],58.48 ± 0.48%
same,total insulin secretion (insulin concentration),"[6]; control 2.5 mM glucose in RPMI-1640, listed as The new diterpene",52.0566 µg/L
same,total insulin secretion (insulin concentration),"[6]; control 2.5 mM glucose in RPMI-1640, listed as the new diterpene compound",52.06 µg/L
Hexane,"Cytotoxic Effect at 25 µg/mL (% Inhibition) ± SD, A549",[7],15.40 ± 2.75%
same,"Cytotoxic Effect at 25 µg/mL (% Inhibition) ± SD, HeLa",[8],83.89 ± 4.31%
same,"Cytotoxic Effect at 25 µg/mL (% Inhibition) ± SD, MCF-7",[9],53.54 ± 1.81%
same,"Cytotoxic Effect at 25 µg/mL (% Inhibition) ± SD, HGF",[10],48.23 ± 2.96%
same,cytotoxicity category on HGF cells,[10],moderate (key: non-cytotoxic: cell viability above 80%; weak: 80–60%; moderate: 60–40%; strong: below 40%)
